According to PubChem BioAssay (NCI):
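Five compound concentrations were applied to cells in 96-well plates for 48 hours; endpoints were derived by simple linear interpolation of the resulting dose-response curve. At the TGI there is no net growth.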

Assays:
Experiment in all cases: growth of human tumour cells (NCI), 48 h
786-0 renal = tested on: 786-0 renal
A498 renal = tested on: A498 renal
A549 NSCLC = tested on: A549 NSCLC
ACHN renal = tested on: ACHN renal
BT-549 breast = tested on: BT-549 breast
CAKI-1 renal = tested on: CAKI-1 renal
COLO 205 colon = tested on: COLO 205 colon
DU-145 prostate = tested on: DU-145 prostate
EKVX NSCLC = tested on: EKVX NSCLC
HCT-116 colon = tested on: HCT-116 colon
HCT-15 colon = tested on: HCT-15 colon
HOP-62 NSCLC = tested on: HOP-62 NSCLC
HOP-92 NSCLC = tested on: HOP-92 NSCLC
HS 578T breast = tested on: HS 578T breast
HT29 colon = tested on: HT29 colon
IGROV1 ovarian = tested on: IGROV1 ovarian
K-562 leukemia = tested on: K-562 leukemia
KM12 colon = tested on: KM12 colon
LOX IMVI melanoma = tested on: LOX IMVI melanoma
M14 melanoma = tested on: M14 melanoma
MALME-3M melanoma = tested on: MALME-3M melanoma
MCF7 breast = tested on: MCF7 breast
MDA-MB-231 breast = tested on: MDA-MB-231 breast
MDA-MB-435 = tested on: MDA-MB-435
MDA-N = tested on: MDA-N
NCI-H226 lung = tested on: NCI-H226 lung
NCI-H23 lung = tested on: NCI-H23 lung
NCI-H460 lung = tested on: NCI-H460 lung
NCI-H522 lung = tested on: NCI-H522 lung
NCI/ADR-RES ovarian = tested on: NCI/ADR-RES ovarian
OVCAR-3 ovarian = tested on: OVCAR-3 ovarian
OVCAR-4 ovarian = tested on: OVCAR-4 ovarian
OVCAR-5 ovarian = tested on: OVCAR-5 ovarian
OVCAR-8 ovarian = tested on: OVCAR-8 ovarian
PC-3 prostate = tested on: PC-3 prostate
RPMI-8226 leukemia = tested on: RPMI-8226 leukemia
RXF 393 renal = tested on: RXF 393 renal
SF-268 CNS = tested on: SF-268 CNS
SF-295 CNS = tested on: SF-295 CNS
SF-539 CNS = tested on: SF-539 CNS
SK-MEL-2 melanoma = tested on: SK-MEL-2 melanoma
SK-MEL-28 melanoma = tested on: SK-MEL-28 melanoma
SK-MEL-5 melanoma = tested on: SK-MEL-5 melanoma
SK-OV-3 ovarian = tested on: SK-OV-3 ovarian
SN12C renal = tested on: SN12C renal
SNB-19 CNS = tested on: SNB-19 CNS
SNB-75 CNS = tested on: SNB-75 CNS
SW-620 colon = tested on: SW-620 colon
T-47D breast = tested on: T-47D breast
TK-10 renal = tested on: TK-10 renal
U251 CNS = tested on: U251 CNS
UACC-257 melanoma = tested on: UACC-257 melanoma
UACC-62 melanoma = tested on: UACC-62 melanoma
UO-31 renal = tested on: UO-31 renal
CCRF-CEM leukemia = tested on: CCRF-CEM leukemia
HCC-2998 colon = tested on: HCC-2998 colon
MOLT-4 leukemia = tested on: MOLT-4 leukemia

## O=C(CON1C(=O)c2ccccc2C1=O)c1ccccc1
786-0 renal
  TGI: > 100 µM
A498 renal
  TGI: > 100 µM
A549 NSCLC
  TGI: > 100 µM
ACHN renal
  TGI: > 100 µM
BT-549 breast
  TGI: > 100 µM
CAKI-1 renal
  TGI: 34.8 µM
COLO 205 colon
  TGI: > 100 µM
DU-145 prostate
  TGI: > 100 µM
EKVX NSCLC
  TGI: > 100 µM
HCT-116 colon
  TGI: > 100 µM
HCT-15 colon
  TGI: > 100 µM
HOP-62 NSCLC
  TGI: > 100 µM
HOP-92 NSCLC
  TGI: > 100 µM
HS 578T breast
  TGI: > 100 µM
HT29 colon
  TGI: > 100 µM
IGROV1 ovarian
  TGI: > 100 µM
K-562 leukemia
  TGI: > 100 µM
KM12 colon
  TGI: > 100 µM
LOX IMVI melanoma
  TGI: > 100 µM
M14 melanoma
  TGI: > 100 µM
MALME-3M melanoma
  TGI: 56.9 µM
MCF7 breast
  TGI: > 100 µM
MDA-MB-231 breast
  TGI: > 100 µM
MDA-MB-435
  TGI: > 100 µM
MDA-N
  TGI: > 100 µM
NCI-H226 lung
  TGI: > 100 µM
NCI-H23 lung
  TGI: > 100 µM
NCI-H460 lung
  TGI: > 100 µM
NCI-H522 lung
  TGI: 36.6 µM
NCI/ADR-RES ovarian
  TGI: > 100 µM
OVCAR-3 ovarian
  TGI: > 100 µM
OVCAR-4 ovarian
  TGI: > 100 µM
OVCAR-5 ovarian
  TGI: > 100 µM
OVCAR-8 ovarian
  TGI: > 100 µM
PC-3 prostate
  TGI: > 100 µM
RPMI-8226 leukemia
  TGI: 40.4 µM
RXF 393 renal
  TGI: > 100 µM
SF-268 CNS
  TGI: > 100 µM
SF-295 CNS
  TGI: > 100 µM
SF-539 CNS
  TGI: > 100 µM
SK-MEL-2 melanoma
  TGI: > 100 µM
SK-MEL-28 melanoma
  TGI: > 100 µM
SK-MEL-5 melanoma
  TGI: > 100 µM
SK-OV-3 ovarian
  TGI: > 100 µM
SN12C renal
  TGI: > 100 µM
SNB-19 CNS
  TGI: > 100 µM
SNB-75 CNS
  TGI: > 100 µM
SW-620 colon
  TGI: 69.1 µM
T-47D breast
  TGI: 52.6 µM
TK-10 renal
  TGI: 55 µM
U251 CNS
  TGI: > 100 µM
UACC-257 melanoma
  TGI: > 100 µM
UACC-62 melanoma
  TGI: > 100 µM
UO-31 renal
  TGI: 40.7 µM

## CCOC(=O)c1cc(NC(=O)N(CCC#N)CCN(C(=O)N[C@@H](Cc2ccccc2)C(=O)N[C@@H](CC(C)C)C(=O)NC)c2ccccc2)ccc1OC
786-0 renal
  TGI: > 100 µM
A498 renal
  TGI: > 100 µM
A549 NSCLC
  TGI: > 100 µM
ACHN renal
  TGI: > 100 µM
BT-549 breast
  TGI: 82.9 µM
CAKI-1 renal
  TGI: > 100 µM
CCRF-CEM leukemia
  TGI: > 100 µM
COLO 205 colon
  TGI: > 100 µM
DU-145 prostate
  TGI: > 100 µM
EKVX NSCLC
  TGI: > 100 µM
HCC-2998 colon
  TGI: > 100 µM
HCT-116 colon
  TGI: > 100 µM
HCT-15 colon
  TGI: > 100 µM
HOP-62 NSCLC
  TGI: > 100 µM
HOP-92 NSCLC
  TGI: 71 µM
HS 578T breast
  TGI: > 100 µM
IGROV1 ovarian
  TGI: > 100 µM
KM12 colon
  TGI: > 100 µM
LOX IMVI melanoma
  TGI: 41.5 µM
M14 melanoma
  TGI: > 100 µM
MALME-3M melanoma
  TGI: 73.5 µM
MCF7 breast
  TGI: > 100 µM
MDA-MB-231 breast
  TGI: > 100 µM
MDA-MB-435
  TGI: > 100 µM
MDA-N
  TGI: > 100 µM
MOLT-4 leukemia
  TGI: 82.1 µM
NCI-H226 lung
  TGI: > 100 µM
NCI-H23 lung
  TGI: > 100 µM
NCI/ADR-RES ovarian
  TGI: > 100 µM
OVCAR-3 ovarian
  TGI: > 100 µM
OVCAR-4 ovarian
  TGI: > 100 µM
OVCAR-5 ovarian
  TGI: > 100 µM
OVCAR-8 ovarian
  TGI: > 100 µM
PC-3 prostate
  TGI: > 100 µM
RPMI-8226 leukemia
  TGI: 57.9 µM
RXF 393 renal
  TGI: 75.2 µM
SF-268 CNS
  TGI: > 100 µM
SF-295 CNS
  TGI: > 100 µM
SF-539 CNS
  TGI: 98.5 µM
SK-MEL-2 melanoma
  TGI: > 100 µM
SK-MEL-28 melanoma
  TGI: > 100 µM
SK-MEL-5 melanoma
  TGI: > 100 µM
SK-OV-3 ovarian
  TGI: > 100 µM
SN12C renal
  TGI: > 100 µM
SNB-19 CNS
  TGI: > 100 µM
SNB-75 CNS
  TGI: > 100 µM
T-47D breast
  TGI: > 100 µM
TK-10 renal
  TGI: > 100 µM
UACC-257 melanoma
  TGI: 55 µM
UACC-62 melanoma
  TGI: 24.9 µM
UO-31 renal
  TGI: > 100 µM
